Reference: patent publication US20240122899A1, “COMPOSITION FOR STIMULATING IMMUNE CELL METABOLISM” (SUNTORY HOLDINGS LIMITED, priority 2021, published 2024)

Columns and labels:
[1] = test system: human peripheral blood mononuclear cells (PBMCs); assay: Mitochondrial stress test / oxygen consumption rate (XFe96 flux analyzer) in human PBMCs; type: cell-based; conditions: final concentration of 10 μM, 30 μM, or 100 μM
Method: The effect of the compound (L-ergothioneine) of the present invention on mitochondrial function was analyzed. Ergothioneine was added to human peripheral blood mononuclear cells (PBMCs) under the following conditions. The extracellular oxygen level and pH were measured in real time using an XFe96 flux analyzer (available from Agilent Technologies). XFe technology uses solid-state sensors to simultaneously measure both oxygen consumption rate (OCR) and extracellular acidification rate (ECAR) to determine effects on oxidative phosphorylation (OXPHOS) and glycolysis simultaneously. […] Then, the cells were sequentially exposed to various mitochondrial function inhibitors to evaluate cell metabolism. (Conditions for adding ergothioneine to human PBMCs) Human PBMCs were kept in an XF assay medium (XF RPMI1640 medium). Here, L-ergothioneine was adjusted to a final concentration of 0, 10, 30, or 100 μM. The cells (30,000 cells/50 μL/well) were seeded onto an XF96-well cell culture plate coated with PDL and were centrifuged at 200 g for one minute so that the cells were adhered to the plate. After culturing at 37° C. in the absence of CO2 for 20 minutes, the XF assay medium (130 μL) was added gently, followed by further culturing at 37° C. in the absence of CO2 for 40 minutes. The following mitochondrial stress test was performed on the obtained human PBMCs to which ergothioneine was added. An XF Mit Stress Kit (available from Agilent Technologies) was used for the experiment. […] The results obtained are shown in FIG. 1A (basal respiration), FIG. 1B (ATP production), and FIG. 1C (maximum respiration) to facilitate understanding of a possible mechanism of mitochondria metabolism. […] FIGS. 1A to 1C show the resulting values expressed as mean±standard deviation. A significance test was performed by Dunnett's test (test by multiple comparison assuming equal variance, p-value) using an Excel analysis tool to obtain test results relative to the final concentration (0 μM) of ergothioneine (*: p<0.05, **: p<0.01).

[2] = mice orally administered, versus mice not administered; cited from earlier work
[3] = test system: IL-6, IL-12, IL-1β, and IL-10; conditions: absence of the TLR ligand; ergothioneine concentration 0 or 10 mM; cited from earlier work

C[N+](C)(C)[C@@H](Cc1c[nH]c(=S)[nH]1)C(=O)[O-] [ergothioneine, L-ergothioneine]
oxygen consumption rate (OCR) of human PBMCs over time ([1]; FIG. 2): increase
OCR related to basal respiration (mitochondrial basal respiration) ([1]; relative to 0 μM, FIG. 1A): significant increase
OCR related to ATP-related respiration (mitochondrial ATP production) ([1]; relative to 0 μM, FIG. 1B): significant increase
OCR related to maximum respiration (mitochondrial maximum respiration) ([1]; relative to 0 μM, FIG. 1C): significant increase
peritesticular fat weight [2]: lower
triglyceride (neutral fat) level in plasma [2]: lower
detection of IL-6, IL-12, IL-1β, and IL-10 [3]: none of IL-6, IL-12, IL-1β, and IL-10 was detected
